Laboratory results taken from the supplement of paper PMC10307832.

Key:
Assay in all cases: relative viability (nuclei count vs DMSO), 5 days (fraction); higher = more cells survive
ABC-1 = test system: ABC-1
Summary of the method: (§1)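 Values are medians from duplicate plates. Each reflects relative viability, defined as the nuclei count of treated wells over that of vehicle wells. Lung cancer cell lines in 1536-well plates were pin-tool dosed one day after seeding with one drug alone or with a fixed anchor-drug dose plus five library-drug doses (not always all listed) in √10 steps, then fixed, stained and imaged at 4× after 5 days.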

BEN = test system: BEN
Summary of the method: as §1

CAL-12T = test system: CAL-12T
Summary of the method: as §1

COR-L 105 = test system: COR-L 105
Summary of the method: as §1

ChaGo-K-1 = test system: ChaGo-K-1
Summary of the method: as §1

HARA = test system: HARA
Summary of the method: as §1

HCC-15 = test system: HCC-15
Summary of the method: as §1

HCC-366 = test system: HCC-366
Summary of the method: as §1

HCC-44 = test system: HCC-44
Summary of the method: as §1

HCC-827 = test system: HCC-827
Summary of the method: as §1

HOP-62 = test system: HOP-62
Summary of the method: as §1

LC-2-ad = test system: LC-2-ad
Summary of the method: as §1

LCLC-97TM1 = test system: LCLC-97TM1
Summary of the method: as §1

LOU-NH91 = test system: LOU-NH91
Summary of the method: as §1

LU99A = test system: LU99A
Summary of the method: as §1

NCI-H1650 = test system: NCI-H1650
Summary of the method: as §1

NCI-H1915 = test system: NCI-H1915
Summary of the method: as §1

NCI-H1944 = test system: NCI-H1944
Summary of the method: as §1

NCI-H2009 = test system: NCI-H2009
Summary of the method: as §1

NCI-H2023 = test system: NCI-H2023
Summary of the method: as §1

NCI-H596 = test system: NCI-H596
Summary of the method: as §1

NCI-H650 = test system: NCI-H650
Summary of the method: as §1

NCI-H661 = test system: NCI-H661
Summary of the method: as §1

Nc1cccc2c1CN(C1CCC(=O)NC1=O)C2=O (stereo not drawn) [Lenalidomide] + C[C@@H](Oc1cc(-c2cnn(C3CCNCC3)c2)cnc1N)c1c(Cl)ccc(F)c1Cl [Crizotinib] (partner 1 µM)
relative viability (ABC-1; first compound 0.253 µM): 1.06
relative viability (ABC-1; first compound 0.8 µM): 1.25
relative viability (ABC-1; first compound 2.53 µM): 1.37
relative viability (ABC-1; first compound 8 µM): 1.43
relative viability (BEN; first compound 0.253 µM): 1.04
relative viability (BEN; first compound 0.8 µM): 0.642
relative viability (BEN; first compound 2.53 µM): 1.07
relative viability (BEN; first compound 8 µM): 0.85
relative viability (CAL-12T; first compound 0.253 µM): 0.617
relative viability (CAL-12T; first compound 0.8 µM): 0.587
relative viability (CAL-12T; first compound 2.53 µM): 0.692
relative viability (CAL-12T; first compound 8 µM): 0.857
relative viability (COR-L 105; first compound 0.253 µM): 0.905
relative viability (COR-L 105; first compound 0.8 µM): 0.716
relative viability (COR-L 105; first compound 2.53 µM): 0.986
relative viability (COR-L 105; first compound 8 µM): 1.12
relative viability (ChaGo-K-1; first compound 0.253 µM): 1.1
relative viability (ChaGo-K-1; first compound 2.53 µM): 1.31
relative viability (ChaGo-K-1; first compound 8 µM): 1.28
relative viability (HARA; first compound 0.253 µM): 1.02
relative viability (HARA; first compound 0.8 µM): 1.05
relative viability (HARA; first compound 2.53 µM): 1.2
relative viability (HARA; first compound 8 µM): 1.13
relative viability (HCC-15; first compound 0.253 µM): 0.809
relative viability (HCC-15; first compound 2.53 µM): 1.03
relative viability (HCC-15; first compound 8 µM): 0.799
relative viability (HCC-366; first compound 0.253 µM): 0.56
relative viability (HCC-366; first compound 0.8 µM): 0.499
relative viability (HCC-366; first compound 2.53 µM): 0.465
relative viability (HCC-366; first compound 8 µM): 0.499
relative viability (HCC-44; first compound 0.253 µM): 0.823
relative viability (HCC-44; first compound 0.8 µM): 0.663
relative viability (HCC-44; first compound 2.53 µM): 0.857
relative viability (HCC-44; first compound 8 µM): 0.832
relative viability (HCC-827; first compound 0.253 µM): 1.02
relative viability (HCC-827; first compound 0.8 µM): 1.02
relative viability (HCC-827; first compound 2.53 µM): 0.964
relative viability (HCC-827; first compound 8 µM): 1.06
relative viability (HOP-62; first compound 0.253 µM): 0.859
relative viability (HOP-62; first compound 0.8 µM): 0.507
relative viability (HOP-62; first compound 2.53 µM): 0.938
relative viability (HOP-62; first compound 8 µM): 0.74
relative viability (LC-2-ad; first compound 0.253 µM): 0.516
relative viability (LC-2-ad; first compound 0.8 µM): 0.43
relative viability (LC-2-ad; first compound 2.53 µM): 0.547
relative viability (LC-2-ad; first compound 8 µM): 0.511
relative viability (LCLC-97TM1; first compound 0.8 µM): 0.511
relative viability (LCLC-97TM1; first compound 2.53 µM): 0.463
relative viability (LCLC-97TM1; first compound 8 µM): 0.305
relative viability (LOU-NH91; first compound 0.253 µM): 0.73
relative viability (LOU-NH91; first compound 0.8 µM): 0.732
relative viability (LOU-NH91; first compound 2.53 µM): 0.714
relative viability (LOU-NH91; first compound 8 µM): 0.704
relative viability (LU99A; first compound 0.253 µM): 0.525
relative viability (LU99A; first compound 0.8 µM): 0.517
relative viability (LU99A; first compound 2.53 µM): 0.559
relative viability (LU99A; first compound 8 µM): 0.54
relative viability (NCI-H1650; first compound 0.253 µM): 0.922
relative viability (NCI-H1650; first compound 0.8 µM): 1.03
relative viability (NCI-H1650; first compound 2.53 µM): 1.11
relative viability (NCI-H1650; first compound 8 µM): 1.17
relative viability (NCI-H1915; first compound 0.253 µM): 0.906
relative viability (NCI-H1915; first compound 0.8 µM): 0.88
relative viability (NCI-H1915; first compound 2.53 µM): 0.978
relative viability (NCI-H1915; first compound 8 µM): 0.952
relative viability (NCI-H1944; first compound 0.253 µM): 1.1
relative viability (NCI-H1944; first compound 0.8 µM): 1.1
relative viability (NCI-H1944; first compound 2.53 µM): 1.15
relative viability (NCI-H1944; first compound 8 µM): 1
relative viability (NCI-H2009; first compound 0.253 µM): 1.07
relative viability (NCI-H2009; first compound 0.8 µM): 1.03
relative viability (NCI-H2009; first compound 2.53 µM): 1.12
relative viability (NCI-H2009; first compound 8 µM): 1.1
relative viability (NCI-H2023; first compound 0.253 µM): 0.661
relative viability (NCI-H2023; first compound 0.8 µM): 0.785
relative viability (NCI-H2023; first compound 2.53 µM): 0.675
relative viability (NCI-H2023; first compound 8 µM): 0.596
relative viability (NCI-H596; first compound 0.253 µM): 1.1
relative viability (NCI-H596; first compound 0.8 µM): 0.912
relative viability (NCI-H596; first compound 2.53 µM): 1.08
relative viability (NCI-H596; first compound 8 µM): 0.938
relative viability (NCI-H650; first compound 0.253 µM): 0.755
relative viability (NCI-H650; first compound 2.53 µM): 0.863
relative viability (NCI-H650; first compound 8 µM): 0.809
relative viability (NCI-H661; first compound 0.253 µM): 0.972
relative viability (NCI-H661; first compound 0.8 µM): 0.898
relative viability (NCI-H661; first compound 2.53 µM): 0.905
relative viability (NCI-H661; first compound 8 µM): 0.973
